From publication PMC7026418, “The kinase polypharmacology landscape of clinical PARP inhibitors” (Scientific Reports, 2020)
Like-named read-outs stand apart in the source and are kept apart here. Values belong to the molecule of their own block, whether it stands above or below them.

Legend:
Test in all cases: biochemical
Parameters in all cases: DiscoveRx KINOMEscan active site-directed competition binding; percent of control kinase bound to immobilised ligand
[1] = biological target: SBK1 (Homo sapiens, UniProt Q52WX2)
SBK1, sequence (Q52WX2 whole entry): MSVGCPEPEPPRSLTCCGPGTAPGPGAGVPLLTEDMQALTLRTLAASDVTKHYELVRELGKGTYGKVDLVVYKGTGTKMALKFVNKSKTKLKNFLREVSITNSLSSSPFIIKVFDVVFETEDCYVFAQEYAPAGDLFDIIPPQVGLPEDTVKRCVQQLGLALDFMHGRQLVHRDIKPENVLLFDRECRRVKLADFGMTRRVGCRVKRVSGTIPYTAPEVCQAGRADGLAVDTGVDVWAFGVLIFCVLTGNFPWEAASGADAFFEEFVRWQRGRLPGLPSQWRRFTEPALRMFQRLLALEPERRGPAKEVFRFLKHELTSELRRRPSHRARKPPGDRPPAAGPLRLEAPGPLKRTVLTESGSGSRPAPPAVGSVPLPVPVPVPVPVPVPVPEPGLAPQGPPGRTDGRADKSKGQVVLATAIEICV

[2] = biological target: PIKFYVE (Homo sapiens, UniProt Q9Y2I7)
PIKFYVE, sequence (Q9Y2I7 whole entry): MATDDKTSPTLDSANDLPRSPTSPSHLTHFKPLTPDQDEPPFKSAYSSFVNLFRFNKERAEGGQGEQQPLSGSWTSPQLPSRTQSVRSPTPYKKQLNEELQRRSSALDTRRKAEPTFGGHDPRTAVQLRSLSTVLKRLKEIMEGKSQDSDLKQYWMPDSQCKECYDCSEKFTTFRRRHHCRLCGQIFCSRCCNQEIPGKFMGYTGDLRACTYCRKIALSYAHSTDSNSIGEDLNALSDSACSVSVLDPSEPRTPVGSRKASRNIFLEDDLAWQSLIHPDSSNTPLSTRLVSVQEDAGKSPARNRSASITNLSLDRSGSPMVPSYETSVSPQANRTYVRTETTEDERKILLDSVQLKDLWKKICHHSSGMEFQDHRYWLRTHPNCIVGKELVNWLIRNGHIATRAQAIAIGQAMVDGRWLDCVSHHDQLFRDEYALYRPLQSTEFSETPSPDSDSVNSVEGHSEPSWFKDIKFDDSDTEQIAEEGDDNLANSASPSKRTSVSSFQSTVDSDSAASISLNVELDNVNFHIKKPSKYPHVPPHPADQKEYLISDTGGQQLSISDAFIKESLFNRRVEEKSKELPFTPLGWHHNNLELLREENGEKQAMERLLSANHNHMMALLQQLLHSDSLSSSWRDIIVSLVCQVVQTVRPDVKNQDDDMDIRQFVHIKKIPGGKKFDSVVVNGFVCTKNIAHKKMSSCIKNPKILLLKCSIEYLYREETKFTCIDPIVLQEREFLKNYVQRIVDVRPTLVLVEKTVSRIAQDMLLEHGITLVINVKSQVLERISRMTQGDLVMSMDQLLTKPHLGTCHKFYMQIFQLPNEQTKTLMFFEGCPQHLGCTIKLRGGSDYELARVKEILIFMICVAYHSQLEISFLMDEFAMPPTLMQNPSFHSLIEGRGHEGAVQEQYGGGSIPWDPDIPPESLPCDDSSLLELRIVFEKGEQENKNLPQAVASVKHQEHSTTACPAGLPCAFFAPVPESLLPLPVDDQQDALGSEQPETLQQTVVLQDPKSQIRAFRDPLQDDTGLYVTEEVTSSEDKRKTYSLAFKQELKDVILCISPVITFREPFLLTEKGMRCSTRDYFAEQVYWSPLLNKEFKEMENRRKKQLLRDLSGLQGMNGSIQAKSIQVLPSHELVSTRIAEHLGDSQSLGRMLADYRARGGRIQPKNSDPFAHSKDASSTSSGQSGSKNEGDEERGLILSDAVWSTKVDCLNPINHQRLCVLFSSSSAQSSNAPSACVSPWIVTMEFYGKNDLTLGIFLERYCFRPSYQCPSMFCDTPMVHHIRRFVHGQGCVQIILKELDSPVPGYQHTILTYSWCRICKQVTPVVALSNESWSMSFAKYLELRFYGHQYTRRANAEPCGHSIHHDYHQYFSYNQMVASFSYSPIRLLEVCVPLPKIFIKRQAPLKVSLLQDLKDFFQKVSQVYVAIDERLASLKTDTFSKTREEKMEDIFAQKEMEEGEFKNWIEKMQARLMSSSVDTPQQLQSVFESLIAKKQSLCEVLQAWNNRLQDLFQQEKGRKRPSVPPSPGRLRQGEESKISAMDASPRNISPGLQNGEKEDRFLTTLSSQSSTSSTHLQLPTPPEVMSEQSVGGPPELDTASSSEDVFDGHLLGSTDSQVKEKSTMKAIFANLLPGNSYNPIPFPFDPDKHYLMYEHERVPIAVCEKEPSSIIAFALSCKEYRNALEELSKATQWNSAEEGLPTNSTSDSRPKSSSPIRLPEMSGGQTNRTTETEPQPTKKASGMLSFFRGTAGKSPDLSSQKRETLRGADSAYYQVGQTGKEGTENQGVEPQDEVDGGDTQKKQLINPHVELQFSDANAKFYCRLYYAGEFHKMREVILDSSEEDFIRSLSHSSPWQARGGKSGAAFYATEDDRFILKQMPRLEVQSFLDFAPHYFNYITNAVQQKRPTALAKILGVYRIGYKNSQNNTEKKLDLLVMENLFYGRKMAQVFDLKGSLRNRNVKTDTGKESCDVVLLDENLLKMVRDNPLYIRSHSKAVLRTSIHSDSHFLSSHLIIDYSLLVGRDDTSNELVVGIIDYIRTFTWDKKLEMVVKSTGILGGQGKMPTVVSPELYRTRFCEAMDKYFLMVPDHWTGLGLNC

[3] = biological target: T1, PCTK2 (Homo sapiens, UniProt Q00537)
T1 construct: gene CDK17
T1 sequence (Q00537 whole entry): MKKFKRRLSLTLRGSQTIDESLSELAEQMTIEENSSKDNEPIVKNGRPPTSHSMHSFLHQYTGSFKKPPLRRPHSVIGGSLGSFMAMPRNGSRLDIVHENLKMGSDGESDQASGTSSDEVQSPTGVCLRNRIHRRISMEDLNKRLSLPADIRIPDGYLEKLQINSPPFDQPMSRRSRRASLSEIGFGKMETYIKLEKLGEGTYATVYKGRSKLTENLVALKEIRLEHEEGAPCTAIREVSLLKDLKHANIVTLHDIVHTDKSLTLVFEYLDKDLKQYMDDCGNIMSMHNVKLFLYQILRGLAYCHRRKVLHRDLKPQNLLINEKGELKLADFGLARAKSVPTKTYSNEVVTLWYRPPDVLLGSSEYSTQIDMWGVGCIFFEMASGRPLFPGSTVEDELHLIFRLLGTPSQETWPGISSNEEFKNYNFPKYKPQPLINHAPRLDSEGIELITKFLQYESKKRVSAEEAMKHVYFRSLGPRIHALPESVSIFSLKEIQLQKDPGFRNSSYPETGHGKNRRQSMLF

[4] = biological target: T2, YANK3 (Homo sapiens, UniProt Q86UX6)
T2 construct: gene STK32C
T2 sequence (Q86UX6 whole entry): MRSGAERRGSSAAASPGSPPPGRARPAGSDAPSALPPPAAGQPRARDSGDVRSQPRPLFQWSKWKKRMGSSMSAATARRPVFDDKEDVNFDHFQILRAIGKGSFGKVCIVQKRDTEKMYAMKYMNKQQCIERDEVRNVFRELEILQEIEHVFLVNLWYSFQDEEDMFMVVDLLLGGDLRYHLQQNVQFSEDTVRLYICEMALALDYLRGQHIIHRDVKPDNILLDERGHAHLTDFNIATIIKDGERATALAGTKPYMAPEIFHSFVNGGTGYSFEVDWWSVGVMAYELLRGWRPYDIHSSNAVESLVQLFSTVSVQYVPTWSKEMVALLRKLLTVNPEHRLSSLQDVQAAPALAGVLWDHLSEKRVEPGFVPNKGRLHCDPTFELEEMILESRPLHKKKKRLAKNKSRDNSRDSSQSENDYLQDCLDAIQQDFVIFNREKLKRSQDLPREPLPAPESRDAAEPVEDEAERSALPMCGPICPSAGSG

[5] = biological target: T3, IKK-epsilon (Homo sapiens, UniProt Q14164)
T3 construct: gene IKBKE
T3 sequence (Q14164 1-716): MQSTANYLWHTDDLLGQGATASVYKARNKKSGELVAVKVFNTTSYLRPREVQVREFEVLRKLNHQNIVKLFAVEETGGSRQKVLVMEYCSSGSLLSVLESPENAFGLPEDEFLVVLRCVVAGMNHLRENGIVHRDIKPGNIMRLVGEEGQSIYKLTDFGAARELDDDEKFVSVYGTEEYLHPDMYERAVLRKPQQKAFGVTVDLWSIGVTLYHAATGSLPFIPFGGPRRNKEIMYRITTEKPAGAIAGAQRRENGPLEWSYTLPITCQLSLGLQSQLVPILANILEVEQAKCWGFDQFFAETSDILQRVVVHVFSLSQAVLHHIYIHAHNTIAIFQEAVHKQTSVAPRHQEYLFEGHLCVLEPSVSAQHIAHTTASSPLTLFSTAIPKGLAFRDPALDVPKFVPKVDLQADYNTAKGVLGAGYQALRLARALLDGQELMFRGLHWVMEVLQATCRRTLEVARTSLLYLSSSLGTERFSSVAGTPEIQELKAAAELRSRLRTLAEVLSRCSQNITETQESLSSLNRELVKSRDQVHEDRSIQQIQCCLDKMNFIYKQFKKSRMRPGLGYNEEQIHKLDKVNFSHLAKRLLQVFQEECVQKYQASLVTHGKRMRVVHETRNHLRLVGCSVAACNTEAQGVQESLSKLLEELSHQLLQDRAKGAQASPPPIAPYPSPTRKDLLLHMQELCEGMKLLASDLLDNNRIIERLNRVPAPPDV

[6] = biological target: T4, GRK1 (Homo sapiens, UniProt Q15835)
T4 sequence (Q15835 1-563): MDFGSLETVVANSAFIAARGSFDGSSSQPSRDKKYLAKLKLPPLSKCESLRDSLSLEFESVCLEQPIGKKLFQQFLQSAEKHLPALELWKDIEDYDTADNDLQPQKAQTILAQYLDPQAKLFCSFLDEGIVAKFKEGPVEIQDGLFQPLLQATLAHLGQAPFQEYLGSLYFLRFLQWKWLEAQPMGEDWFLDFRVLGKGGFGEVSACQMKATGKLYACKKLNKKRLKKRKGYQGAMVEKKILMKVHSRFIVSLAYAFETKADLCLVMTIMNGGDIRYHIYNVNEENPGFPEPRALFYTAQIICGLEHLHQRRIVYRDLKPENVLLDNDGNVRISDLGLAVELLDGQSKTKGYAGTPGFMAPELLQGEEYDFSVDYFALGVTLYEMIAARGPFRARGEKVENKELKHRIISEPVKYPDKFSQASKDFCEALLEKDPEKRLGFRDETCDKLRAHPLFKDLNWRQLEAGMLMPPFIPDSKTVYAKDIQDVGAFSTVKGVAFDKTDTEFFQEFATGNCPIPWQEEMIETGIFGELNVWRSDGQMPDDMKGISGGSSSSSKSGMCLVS

[7] = read-out: Olaparib / %Ctrl @ 10000nM
[8] = read-out: Talazoparib (BMN 673) / %Ctrl @ 10000nM
[9] = read-out: Rucaparib / %Ctrl @ 10000nM, binding competition, % of control
[10] = read-out: Niraparib (MK-4827) / %Ctrl @ 10000nM

- percent of control binding at 10 µM [1, 7]: 95%
- percent of control binding at 10 µM [2, 7]: 100%
- percent of control binding at 10 µM [3, 7]: 100%
- percent of control binding at 10 µM [4, 7]: 83%
- percent of control binding at 10 µM [5, 7]: 70%
- percent of control binding at 10 µM [6, 7]: 91%
Structure (SMILES): O=C(c1cc(Cc2n[nH]c(=O)c3ccccc23)ccc1F)N1CCN(C(=O)C2CC2)CC1 [Olaparib]

- percent of control binding at 10 µM [1, 8]: 96%
- percent of control binding at 10 µM [2, 8]: 80%
- percent of control binding at 10 µM [3, 8]: 94%
- percent of control binding at 10 µM [4, 8]: 85%
- percent of control binding at 10 µM [5, 8]: 90%
- percent of control binding at 10 µM [6, 8]: 100%
Structure (SMILES): Cn1ncnc1[C@H]1c2n[nH]c(=O)c3cc(F)cc(c23)N[C@@H]1c1ccc(F)cc1 [Talazoparib]

- percent of control binding at 10 µM [1, 9]: 65%
- percent of control binding at 10 µM [2, 9]: 92%
- percent of control binding at 10 µM [3, 9]: 54%
- percent of control binding at 10 µM [4, 9]: 72%
- percent of control binding at 10 µM [5, 9]: 73%
- percent of control binding at 10 µM [6, 9]: 64%
Structure (SMILES): CNCc1ccc(-c2[nH]c3cc(F)cc4c3c2CCNC4=O)cc1 [Rucaparib]

Structure (SMILES): NC(=O)c1cccc2cn(-c3ccc([C@@H]4CCCNC4)cc3)nc12 [Niraparib]
- percent of control binding at 10 µM [1, 10]: 83%
- percent of control binding at 10 µM [2, 10]: 75%
- percent of control binding at 10 µM [3, 10]: 73%
- percent of control binding at 10 µM [4, 10]: 86%
- percent of control binding at 10 µM [5, 10]: 76%
- percent of control binding at 10 µM [6, 10]: 95%
